Patent publication US4477465A, “Substituted 4,10-dihydro-10-oxothieno benzoxepins” (Hoechst-Roussel Pharmaceuticals Inc., priority 1983, dated 1984)
Where two headings read alike, the source gives them in different places.

Tests used:
[1] = test system: carrageenin induced rat paw edema; assay: carrageenin induced rat paw edema antiinflammatory assay; type: in vivo; conditions: for Carrageenin Paw Edema %: dose 20 mg/kg (p.o.), rat
Source text: The compounds of the present invention are useful as antiinflammatory agents due to their ability to suppress inflammation in mammals. […] Exptl. Biol. Med., III 544 (1962), J. Pharmacol. Exp., 141 (1963)].

[2] = test system: 2-phenyl-1,4-benzoquinone-induced writhing; assay: 2-phenyl-1,4-benzoquinone-induced writhing test in mice (analgesia); type: in vivo; conditions: Mus musculus, po
[3] = mice, read-out: Phenylquinone Writhing ED50 Orally (p.o.)

| SMILES | Carrageenin Paw Edema % [1] [%] | ED50 [2, 3] [mg/kg] | ED50 ([2]; read-out: analgesic activity ED50) [mg/kg] | inhibition of edema ([1]; dose 50 mg/kg (p.o.), in a similar test) [%] |
| --- | --- | --- | --- | --- |
| CC1(C)COC(Cc2ccc3c(c2)C(=O)c2sccc2CO3)=N1 [2-(4,10-Dihydro-10-oxothieno[3,2-c][1]benzoxepin-8-yl)methyl-4,4-dimethyl-oxazoline] | 49 | 7.22 | – | – |
| COC(=O)COC(=O)Cc1ccc2c(c1)C(=O)c1sccc1CO2 [Methyl (4,10-dihydro-10-oxothieno[3,2-c][1]benzoxepin-8-yl) acetoxyacetate] | 43 | 1.53 | – | – |
| COc1ccc2c(c1)c(CC(=O)O)c(C)n2C(=O)c1ccc(Cl)cc1 [indomethacin, reference compound] | – | – | 0.7 | – |
| CCCCC1C(=O)N(c2ccccc2)N(c2ccccc2)C1=O [phenylbutazone, reference compound] | – | – | – | 50 |
